Test results taken from US20100028395A1, “COMPOSITIONS CONTAINING N-ACETYLGLUCOSAMINE FOR USE IN DERMO-COSMETOLOGY AND AESTHETIC MEDICINE” (ROTTAPHARM S.P.A., priority 2007, published 2010).

Columns and labels:
[1] = test system: Human fibroblasts, Detroit 551 ATCC CCL III; experiment: Stimulation of elastin synthesis in human fibroblast cultures (Fastin assay); assay type: cell-based; settings: 24 h
Text: The scope of the test has been the evaluation and the comparison of the potential stimulation exerted by the test substances on the expression of collagen and elastin in “in vitro” cultures of skin-derived cells, such as fibroblasts. The test in question, even though conducted “in vitro”, can be considered to be predictive of the effects of use of the same substances “in vivo”.
Human fibroblasts, Detroit 551 ATCC CCL III from LGC Promochem (Milan, Italy) have been used.
The substances and concentrations tested have been the same as those already described for stage B of the test on the stimulation of HA expression, i.e.: • CA: 0.66, 1.32, 1.98, 2.64 and 3.3 mg/ml • NAG: 0.5, 1.0, 1.5, 2.0 and 2.5 mg/ml • ASS: 0.16, 0.32, 0.48, 0.64 and 0.80 mg/ml
Cells have been plated out in 96 well plates, 2500 cells/well for 24 hours in cell growth medium ([…], DMEM)+10% foetal calf serum (FCS). Fresh culture medium, enriched with just 5% FCS and containing the substances to be tested, so as to reach the final concentrations desired, has then been added. The samples have been dissolved directly in the culture medium. Each sample has been tested in duplicate and the experiments have been repeated twice. The parameters of interest have been determined after 24 hours on separate plates. Untreated cell cultures have been used as controls.
Elastin has been assayed using a commercially available test (Fastin™, biodye science). The assay is based on the interaction of 5,10,15,20-tetraphenyl-21,23-porphyrin with elastin molecules.
De novo elastin synthesis has been evaluated in the culture medium following treatment with the test substances, following the protocol provided with the test, and by using the calibration curve obtained employing the elastin standard contained in the kit itself.
Evaluation of the effects of the substances tested, at the various concentrations, on fibroblast cultures, has been expressed as the absolute and percent increase or decrease of collagen and elastin expression, with respect to the corresponding control culture, after 24 hours of incubation.
The percentage difference increase or decrease of the effects exerted by CA and NAG, at corresponding concentrations, have then been calculated, with consequent evaluation of their potential statistical significance by means of the test Student “t” test.

[2] = test system: Human fibroblasts, Detroit 551 ATCC CCL III; experiment: Stimulation of HA synthesis in human fibroblast cultures (EIA HA assay); assay type: cell-based; settings: for HA(ng/well) (Diff. from baseline) / HA (%) (Diff. from baseline): 48 h; for HA (%) from NAG (consistent doses): see Table 2
Text: The test has been conducted in two stages, i.e.: • stage A: in which the stimulation of HA expression by COMBI has been evaluated while maintaining the concentration constant and varying the reciprocal quantities of its components. The concentration used has been selected so as to enable comparison with the results derived from stage B; • stage B: in which the effect of CA on HA expression has been evaluated by varying its concentration and in comparison with doses consistent with its components. […] Human fibroblasts have been grown in suitable growth medium (Eagle's minimal essential medium) supplemented with 10% foetal calf serum (FCS), 1 mM sodium pyruvate, 2 mM glutamine, non-essential aminoacids and 50 μg/ml glutamycin. […] After 48 hours, the supernatant has been removed and used for the determination of the parameters of interest. The test has been conducted in duplicate and untreated cell cultures have been used as controls. HA has been assayed (dosed) by means of an immuno-enzymatic test using a commercially available kit (EIA, Corgenix). De novo HA synthesis has been evaluated in the culture medium following treatment with the test substances, according to the protocol provided with the test, and against the calibration curve obtained using the HA standard contained in the kit. […] • evaluation of the effects of the substances tested, at the various concentrations, on fibroblast cultures has been expressed as the absolute and percent increase or decrease of the HA expression, with respect to the corresponding control culture, after 48 hours of incubation. The percentage difference increase or decrease of the effects exerted by CA and NAG, at corresponding concentrations, have then been calculated, with evaluation of their potential significance by means of the Student's “t” test.

[3] = test system: MatTek Human Skin EpiDemFT skin model; settings: addition of NAG to in vitro skin model; cited from earlier work

CC(=O)N[C@@H](C=O)[C@@H](O)[C@H](O)[C@H](O)CO [NAG, N-acetyl-2-amino-2 deoxyglucose]
Elastin (μg/ml) (Diff. from baseline) ([1]; NAG 0.50 mg/ml): +11.21 μg/ml
Elastin (μg/ml) (Mean ± st. dev.) ([1]; NAG 0.50 mg/ml): 16.29 ± 0.83 µg/mL
Elastin (%) (Diff. from baseline) ([1]; NAG 1.00 mg/ml): +278.94%
Elastin (μg/ml) (Diff. from baseline) ([1]; NAG 1.00 mg/ml): +14.17 μg/ml
Elastin (μg/ml) (Mean ± st. dev.) ([1]; NAG 1.00 mg/ml): 19.25 ± 0.99 µg/mL
Elastin (%) (Diff. from baseline) ([1]; NAG 1.50 mg/ml): +320.28%
Elastin (μg/ml) (Diff. from baseline) ([1]; NAG 1.50 mg/ml): +16.27 μg/ml
Elastin (μg/ml) (Mean ± st. dev.) ([1]; NAG 1.50 mg/ml): 21.35 ± 1.01 µg/mL
Elastin (%) (Diff. from baseline) ([1]; NAG 2.00 mg/ml): +345.27%
Elastin (μg/ml) (Diff. from baseline) ([1]; NAG 2.00 mg/ml): +17.54 μg/ml
Elastin (μg/ml) (Mean ± st. dev.) ([1]; NAG 2.00 mg/ml): 22.62 ± 1.03 µg/mL
Elastin (μg/ml) (Diff. from baseline) ([1]; NAG 2.50 mg/ml): +17.22 μg/ml
Elastin (μg/ml) (Mean ± st. dev.) ([1]; NAG 2.50 mg/ml): 22.30 ± 1.04 µg/mL
HA(ng/well) (Diff. from baseline) ([2]; NAG 0.50 mg/ml): +54 ng/well
HA (%) (Diff. from baseline) ([2]; NAG 1.00 mg/ml): +58.98%
HA(ng/well) (Diff. from baseline) ([2]; NAG 1.00 mg/ml): +289 ng/well
HA (%) (Diff. from baseline) ([2]; NAG 1.50 mg/ml): +76.12%
HA(ng/well) (Diff. from baseline) ([2]; NAG 1.50 mg/ml): +373 ng/well
HA (%) (Diff. from baseline) ([2]; NAG 2.00 mg/ml): +78.78%
HA(ng/well) (Diff. from baseline) ([2]; NAG 2.00 mg/ml): +386 ng/well
HA (%) (Diff. from baseline) ([2]; NAG 2.50 mg/ml): +96.73%
HA(ng/well) (Diff. from baseline) ([2]; NAG 2.50 mg/ml): +474 ng/well
HA (%) from NAG (consistent doses) ([2]; NAG alone at 0.93 mg/ml (content of 1:3.5 combination)): ≈59%
HA (%) from NAG (consistent doses) ([2]; NAG alone at 1.71 mg/ml (content of 1:0.5 combination)): +76.12-+78.8%
increase of HA [3]: very high, significant and dose dependent increase
increase of pro-collagen 1 [3]: very high, significant and dose dependent increase
